Assay results published in PubChem BioAssay AID1259407 (Chemical Carcinogenesis Research Information System (CCRIS), 2018).
The source made the active and inactive calls. How the calls were made is not given here.

System: CCRIS mutagenicity, Ames/micronucleus/aberration tests
Experiment: CCRIS mutagenicity studies
Settings: Test System: AMES SALMONELLA TYPHIMURIUM, Method: PREINCUBATION

Measured: mutagenic call

O=C1CCc2ccccc2O1
inactive: Strain/Indicator: TA98, Metabolic Activation: HAMSTER, LIVER, S-9, AROCLOR 1254 (10%) inactive; negative | Strain/Indicator: TA98, Metabolic Activation: HAMSTER, LIVER, S-9, AROCLOR 1254 inactive; negative | Strain/Indicator: TA98, Metabolic Activation: NONE inactive; negative | Strain/Indicator: TA98, Metabolic Activation: RAT, LIVER, S-9, AROCLOR 1254 (10%) inactive; negative | Strain/Indicator: TA98, Metabolic Activation: RAT, LIVER, S-9, AROCLOR 1254 inactive; negative | Strain/Indicator: TA100, Metabolic Activation: HAMSTER, LIVER, S-9, AROCLOR 1254 (10%) inactive; negative | Strain/Indicator: TA100, Metabolic Activation: HAMSTER, LIVER, S-9, AROCLOR 1254 inactive; negative | Strain/Indicator: TA100, Metabolic Activation: NONE inactive; negative | Strain/Indicator: TA100, Metabolic Activation: RAT, LIVER, S-9, AROCLOR 1254 (10%) inactive; negative | Strain/Indicator: TA100, Metabolic Activation: RAT, LIVER, S-9, AROCLOR 1254 inactive; negative | Strain/Indicator: TA1535, Metabolic Activation: HAMSTER, LIVER, S-9, AROCLOR 1254 (10%) inactive; negative | Strain/Indicator: TA1535, Metabolic Activation: HAMSTER, LIVER, S-9, AROCLOR 1254 inactive; negative | Strain/Indicator: TA1535, Metabolic Activation: NONE inactive; negative | Strain/Indicator: TA1535, Metabolic Activation: RAT, LIVER, S-9, AROCLOR 1254 (10%) inactive; negative | Strain/Indicator: TA1535, Metabolic Activation: RAT, LIVER, S-9, AROCLOR 1254 inactive; negative | Strain/Indicator: TA1537, Metabolic Activation: HAMSTER, LIVER, S-9, AROCLOR 1254 (10%) inactive; negative | Strain/Indicator: TA1537, Metabolic Activation: HAMSTER, LIVER, S-9, AROCLOR 1254 inactive; negative | Strain/Indicator: TA1537, Metabolic Activation: NONE inactive; negative | Strain/Indicator: TA1537, Metabolic Activation: RAT, LIVER, S-9, AROCLOR 1254 (10%) inactive; negative | Strain/Indicator: TA1537, Metabolic Activation: RAT, LIVER, S-9, AROCLOR 1254 inactive; negative
